The values that follow come from patent publication US20030064414A1, “Rapid assessment of coagulation activity in whole blood” (priority 2001, published 2003).

This test has as its system whole blood. The test can be described thus: Recalcified clotting time of citrated whole blood, aprotinin and lipidated tissue factor added at assay initiation. The class given is biochemical. From the text:
In the previous examples, blood was always collected in the presence of a calcium-chelating anticoagulant (citrate) and contact pathway inhibitor (aprotinin or corn trypsin inhibitor). It would be desirable for certain applications, for example hospital emergency department use, if blood could be […] into a standard commercially available and FDA-approved sodium citrate tube, such as that supplied by Becton Dickinson, Franklin Lakes, N.J. and Greiner America, Monroe, N.C. and the contact pathway inhibitor added concomitantly during assay initiation with lipidated tissue factor and divalent calcium. In this example, blood from a single donor was collected into sterile evacuated-tubes containing 3.2% buffered sodium citrate (Greiner). In FIG. 7A, clotting was initiated with calcium in the presence or absence of 15,000 KIU/ml aprotinin (Centerchem Inc., Norwalk, Conn.). […] In contrast, blood recalcified in the absence of aprotinin clotted in 250 sec. Thus, the contact pathway of blood coagulation has been abolished. FIG. 7B depicts a dose-response to Lovenox® when citrated blood was recalcified in the presence of 15,000 U/ml aprotinin and 10 units of lipidated tissue factor.
(>1500 sec) to 180 sec. The correlation (R^2) of clotting time to Enoxaparin® dose was 0.9915. The slope was 550 and intercept 210 sec. […]

With aprotinin, the recalcified clotting time (citrated blood, calcium and 15,000 KIU/ml aprotinin, no tissue factor, 1500 sec maximal clotting time, FIG. 7A) is more than 1500 s. Regarding “lipidated tissue factor: lipidated recombinant tissue factor with synthetic phospholipids, procoagulant that initiates the extrinsic pathway”, the recalcified clotting time (citrated blood recalcified with 15,000 U/ml aprotinin and 10 units of lipidated tissue factor) is 180 s.
